Experiments:
[1] = molecular target: Serine/threonine-protein kinase N2 (Homo sapiens, UniProt Q16513); assay: Inhibition of PKN2 (unknown origin) incubated for 1 hr by spectrophotometric analysis
[2] = Cytotoxicity against human MHCC97H cells assessed as reduction in cell survival incubated for 3 days by cell titre-glo assay; type: functional, cell-based; conditions: 72 h
[3] = molecular target: Receptor tyrosine-protein kinase erbB-4 (Homo sapiens, UniProt Q15303); assay: Inhibition of HER4 (unknown origin) incubated for 1 hr by spectrophotometric analysis
[4] = Cytotoxicity against human SNU5 cells assessed as reduction in cell survival incubated for 3 days by cell titre-glo assay; conditions: SNU-5, 72 h
[5] = molecular target: Muscle, skeletal receptor tyrosine-protein kinase (Homo sapiens, UniProt O15146); assay: Inhibition of MUSK (unknown origin) incubated for 1 hr by spectrophotometric analysis
Muscle, skeletal receptor tyrosine-protein kinase, sequence (O15146 whole entry): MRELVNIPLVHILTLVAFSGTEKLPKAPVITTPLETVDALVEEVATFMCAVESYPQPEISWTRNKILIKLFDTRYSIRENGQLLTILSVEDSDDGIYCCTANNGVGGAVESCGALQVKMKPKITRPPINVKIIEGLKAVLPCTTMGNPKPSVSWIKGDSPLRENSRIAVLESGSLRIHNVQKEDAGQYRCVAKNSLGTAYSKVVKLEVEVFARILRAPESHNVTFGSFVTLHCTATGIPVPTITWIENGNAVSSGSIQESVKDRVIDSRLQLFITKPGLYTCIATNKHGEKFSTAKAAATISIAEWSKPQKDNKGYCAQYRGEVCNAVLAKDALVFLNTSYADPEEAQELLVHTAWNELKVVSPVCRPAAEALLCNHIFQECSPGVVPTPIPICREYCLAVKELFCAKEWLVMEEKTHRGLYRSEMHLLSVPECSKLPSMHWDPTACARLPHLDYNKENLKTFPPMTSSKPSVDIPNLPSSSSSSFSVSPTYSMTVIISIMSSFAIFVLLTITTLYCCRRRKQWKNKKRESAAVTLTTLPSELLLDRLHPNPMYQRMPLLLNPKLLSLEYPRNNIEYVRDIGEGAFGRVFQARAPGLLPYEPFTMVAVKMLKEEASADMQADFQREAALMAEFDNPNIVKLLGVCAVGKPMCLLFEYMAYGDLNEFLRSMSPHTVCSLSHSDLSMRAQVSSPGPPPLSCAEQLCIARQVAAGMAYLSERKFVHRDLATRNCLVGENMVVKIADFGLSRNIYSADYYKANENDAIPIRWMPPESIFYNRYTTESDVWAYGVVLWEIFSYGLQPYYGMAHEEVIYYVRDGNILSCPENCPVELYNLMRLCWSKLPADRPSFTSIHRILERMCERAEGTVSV

[6] = molecular target: ALK tyrosine kinase receptor (Homo sapiens, UniProt Q9UM73); assay: Inhibition of ALK (unknown origin) incubated for 1 hr by spectrophotometric analysis
[7] = molecular target: Tyrosine-protein kinase Fer (Homo sapiens, UniProt P16591); assay: Inhibition of FER (unknown origin) incubated for 1 hr by spectrophotometric analysis
[8] = molecular target: Tyrosine-protein kinase Yes (Homo sapiens, UniProt P07947); assay: Inhibition of YES (unknown origin) incubated for 1 hr by spectrophotometric analysis
[9] = molecular target: Tyrosine-protein kinase BTK (Homo sapiens, UniProt Q06187); assay: Inhibition of BTK (unknown origin) incubated for 1 hr by spectrophotometric analysis
[10] = molecular target: Receptor-type tyrosine-protein kinase FLT3 (Homo sapiens, UniProt P36888); assay: Inhibition of FLT3 (unknown origin) incubated for 1 hr by spectrophotometric analysis
[11] = molecular target: Non-receptor tyrosine-protein kinase TYK2 (Homo sapiens, UniProt P29597); assay: Inhibition of TYK2 (unknown origin) incubated for 1 hr by spectrophotometric analysis
Non-receptor tyrosine-protein kinase TYK2, sequence (P29597 whole entry): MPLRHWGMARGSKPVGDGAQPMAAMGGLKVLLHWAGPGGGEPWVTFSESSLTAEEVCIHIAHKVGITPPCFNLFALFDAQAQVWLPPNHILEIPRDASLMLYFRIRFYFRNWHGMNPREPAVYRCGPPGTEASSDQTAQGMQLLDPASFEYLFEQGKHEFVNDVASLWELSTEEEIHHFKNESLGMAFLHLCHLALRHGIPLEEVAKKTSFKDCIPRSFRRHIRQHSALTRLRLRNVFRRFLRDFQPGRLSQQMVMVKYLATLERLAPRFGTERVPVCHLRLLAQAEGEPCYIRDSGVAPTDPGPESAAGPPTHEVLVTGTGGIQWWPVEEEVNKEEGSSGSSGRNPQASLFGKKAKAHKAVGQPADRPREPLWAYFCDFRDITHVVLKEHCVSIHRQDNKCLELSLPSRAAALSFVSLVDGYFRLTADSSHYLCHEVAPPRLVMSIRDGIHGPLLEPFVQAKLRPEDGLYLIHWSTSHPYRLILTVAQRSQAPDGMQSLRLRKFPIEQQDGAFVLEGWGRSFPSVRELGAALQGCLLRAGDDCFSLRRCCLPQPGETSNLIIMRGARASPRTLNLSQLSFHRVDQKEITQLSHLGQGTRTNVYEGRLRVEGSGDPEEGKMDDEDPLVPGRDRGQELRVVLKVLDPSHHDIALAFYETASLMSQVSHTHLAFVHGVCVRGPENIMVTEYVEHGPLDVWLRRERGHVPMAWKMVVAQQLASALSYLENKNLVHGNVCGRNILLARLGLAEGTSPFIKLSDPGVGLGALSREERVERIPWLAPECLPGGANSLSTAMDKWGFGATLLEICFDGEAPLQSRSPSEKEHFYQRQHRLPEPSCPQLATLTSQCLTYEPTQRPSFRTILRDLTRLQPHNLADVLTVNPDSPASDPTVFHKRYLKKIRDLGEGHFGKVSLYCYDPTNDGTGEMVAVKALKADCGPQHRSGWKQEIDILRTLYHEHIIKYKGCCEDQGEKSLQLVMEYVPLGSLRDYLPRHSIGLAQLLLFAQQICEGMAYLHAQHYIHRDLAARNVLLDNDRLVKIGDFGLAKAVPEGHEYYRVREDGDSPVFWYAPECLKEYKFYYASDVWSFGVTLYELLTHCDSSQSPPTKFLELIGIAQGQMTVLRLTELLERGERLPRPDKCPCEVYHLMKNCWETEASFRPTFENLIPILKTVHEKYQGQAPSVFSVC

[12] = molecular target: Tyrosine-protein kinase Fyn (Homo sapiens, UniProt P06241); assay: Inhibition of FYN (unknown origin) incubated for 1 hr by spectrophotometric analysis
[13] = molecular target: Tyrosine-protein kinase Lck (Homo sapiens, UniProt P06239); assay: Inhibition of LCK (unknown origin) incubated for 1 hr by spectrophotometric analysis
Tyrosine-protein kinase Lck, sequence (P06239 whole entry): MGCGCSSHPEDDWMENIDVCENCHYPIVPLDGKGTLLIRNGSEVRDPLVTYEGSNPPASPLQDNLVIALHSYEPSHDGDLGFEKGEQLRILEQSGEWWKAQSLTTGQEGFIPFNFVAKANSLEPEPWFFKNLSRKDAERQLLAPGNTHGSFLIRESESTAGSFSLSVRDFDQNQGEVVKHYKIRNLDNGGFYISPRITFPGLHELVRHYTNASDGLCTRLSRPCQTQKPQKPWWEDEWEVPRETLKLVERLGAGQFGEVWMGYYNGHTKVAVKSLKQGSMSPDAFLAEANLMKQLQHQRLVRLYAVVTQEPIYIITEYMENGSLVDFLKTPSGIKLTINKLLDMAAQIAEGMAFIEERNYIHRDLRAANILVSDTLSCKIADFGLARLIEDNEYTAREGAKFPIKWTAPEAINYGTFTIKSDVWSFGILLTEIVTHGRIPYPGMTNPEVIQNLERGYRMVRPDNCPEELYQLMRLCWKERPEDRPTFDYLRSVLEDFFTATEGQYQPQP

[14] = molecular target: Vascular endothelial growth factor receptor 2 (Homo sapiens, UniProt P35968); assay: Inhibition of KDR (unknown origin) incubated for 1 hr by spectrophotometric analysis
[15] = molecular target: Platelet-derived growth factor receptor alpha (Homo sapiens, UniProt P16234); assay: Inhibition of PDGFRalpha (unknown origin) incubated for 1 hr by spectrophotometric analysis
[16] = molecular target: Protein-tyrosine kinase 6 (Homo sapiens, UniProt Q13882); assay: Inhibition of BRK (unknown origin) incubated for 1 hr by spectrophotometric analysis
Protein-tyrosine kinase 6, sequence (Q13882 whole entry): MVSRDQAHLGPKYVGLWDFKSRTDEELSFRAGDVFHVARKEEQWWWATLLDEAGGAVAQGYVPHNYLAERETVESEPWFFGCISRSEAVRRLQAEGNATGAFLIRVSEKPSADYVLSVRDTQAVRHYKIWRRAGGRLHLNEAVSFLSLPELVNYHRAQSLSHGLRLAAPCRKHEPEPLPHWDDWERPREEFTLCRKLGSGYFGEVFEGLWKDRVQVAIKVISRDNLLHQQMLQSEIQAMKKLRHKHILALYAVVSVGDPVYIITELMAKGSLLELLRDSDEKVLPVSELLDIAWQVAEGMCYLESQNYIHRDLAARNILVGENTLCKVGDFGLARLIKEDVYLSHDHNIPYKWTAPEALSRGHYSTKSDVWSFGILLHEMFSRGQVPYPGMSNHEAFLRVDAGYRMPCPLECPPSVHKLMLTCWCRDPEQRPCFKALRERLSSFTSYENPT

[17] = molecular target: Tyrosine-protein kinase ABL2 (Homo sapiens, UniProt P42684); assay: Inhibition of ARG (unknown origin) incubated for 1 hr by spectrophotometric analysis
[18] = molecular target: Mitogen-activated protein kinase 1 (Homo sapiens, UniProt P28482); assay: Inhibition of ERK2 (unknown origin) incubated for 1 hr by spectrophotometric analysis
[19] = molecular target: Tyrosine-protein kinase Lyn (Homo sapiens, UniProt P07948); assay: Inhibition of LYNA (unknown origin) incubated for 1 hr by spectrophotometric analysis
Tyrosine-protein kinase Lyn, sequence (P07948 whole entry): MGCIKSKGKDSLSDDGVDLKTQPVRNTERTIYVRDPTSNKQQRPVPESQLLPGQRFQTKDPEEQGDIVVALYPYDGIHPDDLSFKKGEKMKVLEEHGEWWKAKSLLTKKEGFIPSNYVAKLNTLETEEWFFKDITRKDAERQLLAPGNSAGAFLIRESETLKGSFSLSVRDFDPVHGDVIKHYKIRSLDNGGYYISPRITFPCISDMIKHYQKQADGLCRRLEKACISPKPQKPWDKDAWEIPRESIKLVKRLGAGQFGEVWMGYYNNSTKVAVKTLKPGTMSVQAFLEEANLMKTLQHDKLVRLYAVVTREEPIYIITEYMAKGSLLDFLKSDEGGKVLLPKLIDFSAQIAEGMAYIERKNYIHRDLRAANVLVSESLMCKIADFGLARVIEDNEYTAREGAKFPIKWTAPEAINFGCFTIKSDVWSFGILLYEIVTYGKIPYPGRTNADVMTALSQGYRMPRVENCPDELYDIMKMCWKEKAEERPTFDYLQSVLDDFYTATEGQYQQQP

[20] = molecular target: Macrophage-stimulating protein receptor (Homo sapiens, UniProt Q04912); assay: Inhibition of RON (unknown origin) incubated for 1 hr by spectrophotometric analysis
[21] = molecular target: Proto-oncogene tyrosine-protein kinase ROS (Homo sapiens, UniProt P08922); assay: Inhibition of ROS (unknown origin) incubated for 1 hr by spectrophotometric analysis
[22] = molecular target: Mast/stem cell growth factor receptor Kit (Homo sapiens, UniProt P10721); assay: Inhibition of c-Kit (unknown origin) incubated for 1 hr by spectrophotometric analysis
[23] = molecular target: High affinity nerve growth factor receptor (Homo sapiens, UniProt P04629); assay: Inhibition of TRKA (unknown origin) incubated for 1 hr by spectrophotometric analysis
[24] = Cytotoxicity against human MKN45 cells assessed as reduction in cell survival incubated for 3 days by cell titre-glo assay; type: functional, cell-based; conditions: MKN-45, 72 h
[25] = test system: NCI-H1975; assay: Cytotoxicity against human NCI-H1975 cells assessed as reduction in cell survival incubated for 3 days by cell titre-glo assay; type: functional, cell-based; conditions: NCI-H1975, 72 h
[26] = Cytotoxicity against human MHCC97L cells assessed as reduction in cell survival incubated for 3 days by cell titre-glo assay; type: functional, cell-based; conditions: 72 h
[27] = molecular target: Ephrin type-B receptor 1 (Homo sapiens, UniProt P54762); assay: Inhibition of EPHB1 (unknown origin) incubated for 1 hr by spectrophotometric analysis
Ephrin type-B receptor 1, sequence (P54762 whole entry): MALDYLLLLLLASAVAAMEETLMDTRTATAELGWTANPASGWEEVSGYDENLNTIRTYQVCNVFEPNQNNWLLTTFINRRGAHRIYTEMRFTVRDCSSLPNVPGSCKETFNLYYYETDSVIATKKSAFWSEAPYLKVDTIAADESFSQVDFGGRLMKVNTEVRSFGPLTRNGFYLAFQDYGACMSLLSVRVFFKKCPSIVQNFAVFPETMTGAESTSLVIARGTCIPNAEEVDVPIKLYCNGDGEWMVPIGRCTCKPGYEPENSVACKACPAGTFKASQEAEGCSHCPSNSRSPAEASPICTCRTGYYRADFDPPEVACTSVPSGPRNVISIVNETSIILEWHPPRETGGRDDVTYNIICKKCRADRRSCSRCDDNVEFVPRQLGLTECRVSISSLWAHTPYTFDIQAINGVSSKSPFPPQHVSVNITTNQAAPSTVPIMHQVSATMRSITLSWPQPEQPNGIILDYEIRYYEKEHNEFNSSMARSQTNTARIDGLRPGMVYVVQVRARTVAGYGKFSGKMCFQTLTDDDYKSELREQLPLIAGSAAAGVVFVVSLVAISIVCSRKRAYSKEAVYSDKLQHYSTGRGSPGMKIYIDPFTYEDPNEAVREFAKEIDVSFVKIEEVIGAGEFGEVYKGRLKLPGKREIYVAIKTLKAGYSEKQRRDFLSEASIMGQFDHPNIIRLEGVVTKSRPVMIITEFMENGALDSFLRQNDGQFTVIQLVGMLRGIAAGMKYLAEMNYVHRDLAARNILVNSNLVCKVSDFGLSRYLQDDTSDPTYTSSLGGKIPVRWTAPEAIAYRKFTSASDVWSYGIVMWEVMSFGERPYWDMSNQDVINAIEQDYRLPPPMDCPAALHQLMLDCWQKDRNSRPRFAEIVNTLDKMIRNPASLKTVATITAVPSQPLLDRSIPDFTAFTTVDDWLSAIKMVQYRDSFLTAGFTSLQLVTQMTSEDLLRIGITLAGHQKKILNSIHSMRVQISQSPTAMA

[28] = molecular target: Glycogen synthase kinase-3 beta (Homo sapiens, UniProt P49841); assay: Inhibition of GSK3beta (unknown origin) incubated for 1 hr by spectrophotometric analysis
Glycogen synthase kinase-3 beta, sequence (P49841 whole entry): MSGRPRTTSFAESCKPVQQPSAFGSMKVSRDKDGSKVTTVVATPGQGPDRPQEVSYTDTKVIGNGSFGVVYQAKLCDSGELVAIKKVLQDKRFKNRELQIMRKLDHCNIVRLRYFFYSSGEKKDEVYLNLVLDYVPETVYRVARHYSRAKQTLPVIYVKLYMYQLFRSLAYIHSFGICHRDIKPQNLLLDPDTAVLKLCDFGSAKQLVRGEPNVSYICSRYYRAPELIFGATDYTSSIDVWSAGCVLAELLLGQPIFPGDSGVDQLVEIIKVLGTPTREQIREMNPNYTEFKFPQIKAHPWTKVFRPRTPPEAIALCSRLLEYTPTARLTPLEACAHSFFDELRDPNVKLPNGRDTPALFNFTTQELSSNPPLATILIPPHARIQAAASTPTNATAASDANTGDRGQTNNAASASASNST

Measured: IC50

CN1C(=O)COc2c1cnc1ccc(Sc3nnc4c(F)cc(-c5cnn(C)c5)cn34)cc21 [DALMELITINIB]
11.2 µM: [12]
> 30 µM: [1] | [3] | [5] | [6] | [7] | [8] | [9] | [10] | [11] | [13] | [14] | [15] | [16] | [17] | [18] | [19] | [20] | [22] | [23] | [27]
2.83 µM: [21]
0.007 µM: [26]
0.002 µM: [4]
> 10 µM: [25]
0.006 µM: [2] | [24]
16.2 µM: [28]

— ChEMBL document CHEMBL3817824, “Synthesis and biological evaluation of new [1,2,4]triazolo[4,3-a]pyridine derivatives as potential c-Met inhibitors” (Bioorg Med Chem, 2016)
